In patent publication US20160050895A1, “TRANSGENIC NON-HUMAN ORGANISMS WITH NON-FUNCTIONAL TSPO GENES” (AUSTRALIAN NUCLEAR SCIENCE AND TECHNOLOGY ORGANIZATION, priority 2013, published 2016):

Experiments:
TSPO [1] = target: TSPO (Mus musculus, UniProt P50637); assay: Receptor film autoradiography of tissue sections with [3H]PK11195 and [125I]CLINDE; assay type: binding; set-up: Snap-frozen tissues were sectioned at 20 μm in a cryostat; from tissue; host or cells: mouse organ sections (brain, retina/eye, heart, adrenal, kidney, testis, spleen), C57BL/6 background
Protocol: Snap-frozen tissues were sectioned at 20 μm in a cryostat, thaw mounted on poly-L-lysine-coated slides and stored at −80° C. until day of experiment. On the day of the experiment, slides were thawed at room temperature and air dried with a cool stream of air. Total and non-specific binding were determined by incubation with 1 nM of 3H-PK11195 with or without the presence of 3 μM of PK11195 in 130 mM TRIS-HCl buffer (pH 7.4) at room temperature for 20 minutes. Following incubation, the slides were briefly dipped twice in 130 mM TRIS-HCl buffer, washed twice for 5 minutes in fresh 130 mM TRIS-HCl at room temperature. The slides were finally briefly rinsed 3 times in chilled distilled H2O, dried under a cool stream of air and allowed to air dried overnight. Sections were exposed to Kodak BioMax MR film along with tritium microscales with known activity concentrations in X-ray film cassettes. Films were developed after 33 days and digitized using a GS800 Calibrated Densitometer (Bio-Rad, Hercules, Calif., USA). Images were analysed with Quantity One imaging analysis program (Bio-Rad, Hercules, Calif. USA); to assess the level of 3H-PK11195 binding, regions of interest were drawn over the tissue and an average optical density/mm^2 was calculated. Data obtained from an individual film, subject to interfilm variations, were normalized against other films through the optical density oftritium microscales.
The organs including brain, retina, heart, kidney and testes used for film autoradiography were dissected from wild-type (TSPO^+/+), heterozygous (TSPO^+/−), and homozygous (TSPO^−/−) mice and snap-frozen in liquid nitrogen. Cryostat organ sections at 18 μm were placed onto superfrost slides (Menzel-Glaser, Braunschweig, Germany) and stored in the dark at −20° C. for no longer than 1 week before the experiment. […] Tritium standards (Amersham Biosciences, Uppsala, Sweden) co-exposed with the organ sections on each Hyperfilm-^3H (Kodak Film) at 4° C. for 60 days, were used to quantify the autoradiographically measured binding. The hyperfilm was developed using Kodak GBX developer and fixer (Sigma Aldrich, St. Louis, Mo., U.S.A.). The hyperfilm was air-dried overnight before being scanned using the ArtixScan 1800f flatbed scanner (Microtek, Hsinchu, Taiwan), with greyscale using a magnification of 400% and an optical resolution of 2400 pixels per inch. No pre-scanning manipulation or filter was applied.
Tissue sections from TSPO^+/+, TSPO^+/− and TSPO^−/− mice were incubated at room temperature for 20 min in 170 mM Tris-HCl pH 7.4 containing 1 nM [^3H]PK11195 (specific activity 84 Ci/mmol; Perkin Elmer, Waltham, Mass., USA), washed twice for 5 min in 170 mM Tris-HCl, rinsed with 3 dips in ice-cold MilliQ H2O, and dried. […] Displacement binding was carried out in the presence of PK11195 (10 μM), CLINDE (10 μM) and PBR-11 (10 μM).

TSPO [2] = assay: as above; assay type: binding, mouse; details: spleen, kidney, testis sections from TSPO-/- mice; 3 nM [125I]CLINDE, 1 nM [3H]PK11195
Protocol: Snap-frozen tissues were sectioned at 20 μm in a cryostat, thaw mounted on poly-L-lysine-coated slides and stored at −80° C. until day of experiment. On the day of the experiment, slides were thawed at room temperature and air dried with a cool stream of air. Total and non-specific binding were determined by incubation with 1 nM of 3H-PK11195 with or without the presence of 3 μM of PK11195 in 130 mM TRIS-HCl buffer (pH 7.4) at room temperature for 20 minutes. Following incubation, the slides were briefly dipped twice in 130 mM TRIS-HCl buffer, washed twice for 5 minutes in fresh 130 mM TRIS-HCl at room temperature. […] Images were analysed with Quantity One imaging analysis program (Bio-Rad, Hercules, Calif. USA); to assess the level of 3H-PK11195 binding, regions of interest were drawn over the tissue and an average optical density/mm^2 was calculated. […]
The organs including brain, retina, heart, kidney and testes used for film autoradiography were dissected from wild-type (TSPO^+/+), heterozygous (TSPO^+/−), and homozygous (TSPO^−/−) mice and snap-frozen in liquid nitrogen. […] Tritium standards (Amersham Biosciences, Uppsala, Sweden) co-exposed with the organ sections on each Hyperfilm-^3H (Kodak Film) at 4° C. for 60 days, were used to quantify the autoradiographically measured binding. […]

## CC[C@@H](C)N(C)C(=O)c1cc2ccccc2c(-c2ccccc2Cl)n1 [[^3H]PK11195]
TSPO [1]; in vitro, validated against TSPO-/- null background
  selectivity for TSPO: high selectivity
TSPO [1]; spleen, kidney, testis sections from TSPO+/+ and TSPO+/- mice, 3 nM [125I]CLINDE, 1 nM [3H]PK11195
  Specific binding in tissue sections: clearly visible
TSPO [2]
  binding in TSPO-/- tissue: at background level and not displaceable
